Literature values in patent publication US20120040944A1 (APEX LABORATORIES PRIVATE LIMITED, priority 2009, published 2012).

Legend:
[1] = not given; remark: listed apart in the source
[2] = biological target: T1, CYP3A4 isozyme (Homo sapiens, UniProt P08684); conditions: liver
T1 construct: host or cells: liver
T1 sequence (P08684 whole entry): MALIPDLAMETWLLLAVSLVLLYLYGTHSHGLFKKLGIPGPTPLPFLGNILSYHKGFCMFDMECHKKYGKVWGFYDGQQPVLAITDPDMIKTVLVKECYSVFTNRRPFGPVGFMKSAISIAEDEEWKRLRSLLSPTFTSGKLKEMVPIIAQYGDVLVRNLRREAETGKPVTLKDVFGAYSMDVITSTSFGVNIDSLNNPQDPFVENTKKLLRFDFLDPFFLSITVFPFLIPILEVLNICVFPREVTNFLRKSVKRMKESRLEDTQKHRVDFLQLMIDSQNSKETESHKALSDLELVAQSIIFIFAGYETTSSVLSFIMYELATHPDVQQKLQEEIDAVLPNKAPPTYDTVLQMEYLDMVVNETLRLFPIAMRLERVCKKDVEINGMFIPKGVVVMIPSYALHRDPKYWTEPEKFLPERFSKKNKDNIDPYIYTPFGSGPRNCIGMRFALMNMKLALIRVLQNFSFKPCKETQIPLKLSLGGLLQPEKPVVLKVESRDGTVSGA

## C[C@@H]1C[C@H]2[C@@H]3CCC4=CC(=O)C=C[C@]4(C)[C@@]3(Cl)[C@@H](O)C[C@]2(C)[C@@]1(OC(=O)c1ccco1)C(=O)CCl [Mometasone Furoate, 9α,21-dichloro-11β,17-dihydroxy-16α-methylpregna-1,4-diene-3,20-dione 17-(2-furoate)]
In vivo
  Terminal t½: about 5 h
Inhaled dose compared with IV administration
  bioavailability: less than 1%
Up to 7 days
  Excretion in the feces: 74%
  Excretion in the urine: 8%
[1]; ethyl alcohol
  solubility in ethyl alcohol: moderately soluble
[1]; octanol
  solubility in octanol: slightly soluble
[1]; water
  solubility in water: practically insoluble
[2]
  metabolism: primarily and extensively metabolized in the liver by the CYP3A4 isozyme
